Patent publication US7846943B2, “Azolopyridin-2-one derivatives as lipase and phospholipase inhibitors” (Sanofi-Aventis, priority 2005, dated 2010)

Each compound was assayed against T1, endothelial lipase (EL) (Homo sapiens, UniProt Q9Y5X9) (assay: Further EL inhibition assay). Conditions: Bodipy-labelled phospholipid substrate, 37° C., 90 minutes, HPTLC fluorescence readout; EL from conditioned medium of recombinant cell lines (CHO, HEK293).
T1 construct: made in house; host or cells: recombinant cell lines (CHO, HEK293); concentrated conditioned medium used as enzyme solution
T1 sequence (Q9Y5X9 21-500): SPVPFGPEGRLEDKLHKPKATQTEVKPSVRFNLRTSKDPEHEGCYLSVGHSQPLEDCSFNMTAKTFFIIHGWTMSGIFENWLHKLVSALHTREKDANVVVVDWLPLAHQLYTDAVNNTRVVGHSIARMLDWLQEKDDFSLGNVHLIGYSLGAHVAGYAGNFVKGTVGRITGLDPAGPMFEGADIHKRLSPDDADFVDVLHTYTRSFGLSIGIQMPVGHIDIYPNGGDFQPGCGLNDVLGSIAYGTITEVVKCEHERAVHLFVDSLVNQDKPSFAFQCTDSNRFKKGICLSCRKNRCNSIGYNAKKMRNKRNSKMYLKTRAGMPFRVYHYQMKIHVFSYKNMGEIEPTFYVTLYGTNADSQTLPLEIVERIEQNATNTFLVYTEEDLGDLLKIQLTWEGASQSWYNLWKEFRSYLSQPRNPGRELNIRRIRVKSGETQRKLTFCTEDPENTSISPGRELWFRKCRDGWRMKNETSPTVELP
Format: biochemical
Excerpt: EL is released as secretory protein in high concentration into cell culture medium (conditioned medium) by recombinant cell lines (CHO, HEK293). This is employed as enzyme solution after concentration.
The enzymatic activity is reduced as a function of the inhibitor concentration used, and the inhibitor concentration at which a half-maximum enzymatic activity is observed is called IC50.
The phospholipase-specific substrate 1,2-bis(4,4-difluoro-5,7-dimethyl-4-bora-3a,4a-diaza-s-indacene-3-undecanoyl)-sn-glycero-3-phosphocholine, (manufacturer Molecular Probes) is used to characterize the enzymatic activity of endothelial lipase and the effect of inhibitors. Hydrolysis of the A1 ester linkage of this phospholipid by the enzyme liberates the fluorescent dye Bodipy which can be detected after separation by thin-layer chromatography on an HPTLC plate (silica gel 60, Merck) or directly in the reaction vessel by measuring the fluorescence. The substrate solution is prepared by dissolving 100 μg of 1,2-bis(4,4-difluoro-5,7-dimethyl-4-bora-3a,4a-diaza-s-indacene-3-undecanoyl)-sn-glycero-3-phospho-choline (manufacturer Molecular Probes) in 100 μl of DMSO and taking up in 2.4 mg of tripalmitin (Sigma) in 393 μl of chloroform which comprises 20 mg/ml DOP-choline (1,2-dioleoyl-sn-glycero-3-phosphocholine). 39.3 μl of this lipid mixture are transferred into a fresh reaction vessel, and the solvent is evaporated off. The lipid mixture is dissolved in 4 ml of 200 mM TRIS-HCl, 150 mM sodium chloride, pH=7.4, by sonication twice. The subsequent enzymic reaction takes place at 37° C. for 90 minutes. For this purpose, 20 μl of the substrate solution are incubated with 2 μl of inhibitor of appropriate concentration (dissolved in 10% DMSO, using 10% strength DMSO solution for control) and 2 μl of enzyme solution (conditioned medium). The 4 μl of the assay mixture are loaded onto an HPTLC plate (silica gel 60, Merck), and the liberated fluorescent dye is separated for detection with an eluent (diethyl ether:petroleum benzine:acetic acid [78:22:1]). After evaporation of the eluent, the plate is read in a fluorescence scanner. An increased liberation of the fluorescent dye in the uninhibited reaction is to be observed as a measure of the enzymic activity.
Cc1ccccc1CNC(=O)n1c(=O)oc2cccnc21 [Example 1, 2-Oxo-oxazolo[4,5-b]pyridin-3-(2-methylbenzyl)carboxamide] showed an IC50 of 50 nM.
Cc1ccccc1CNC(=O)n1c(=O)oc2cc(Br)cnc21 [Example 2, 6-Bromo-2-oxo-oxazolo[4,5-b]pyridine-3-(2-methylbenzyl)carboxamide] showed an IC50 of 10 nM.
For CCCCCCNC(=O)n1c(=O)oc2cccnc21 [Example 3, 2-Oxo-oxazolo[4,5-b]pyridine-3-hexylcarboxamide], the IC50 was 69 nM.
In the case of Cc1cccc(CNC(=O)n2c(=O)oc3cccnc32)c1 [Example 4, 2-Oxo-oxazolo[4,5-b]pyridine-3-(3-methylbenzyl)carboxamide], the IC50 is reported as 390 nM.
Compound Cc1ccc(CNC(=O)n2c(=O)oc3cccnc32)cc1C [Example 5, 2-Oxo-oxazolo[4,5-b]pyridine-3-(3,4-dimethylbenzyl)carboxamide] has an IC50 of 10 nM.
CCCCCCCNC(=O)n1c(=O)oc2cccnc21 [Example 9, 2-Oxo-oxazolo[4,5-b]pyridine-3-heptylcarboxamide] showed an IC50 of 11 nM.
Work on CCCCNC(=O)n1c(=O)oc2cccnc21 [Example 11, 2-Oxo-oxazolo[4,5-b]pyridine-3-butylcarboxamide] yielded an IC50 of 354 nM.
Compound O=C(NC1CCCc2ccccc21)n1c(=O)oc2cccnc21 (stereo not drawn) [Example 13, 2-Oxo-oxazolo[4,5-b]pyridin-3-(1,2,3,4-tetrahydronaphthalen-1-yl)carboxamide] has an IC50 of 0.5 nM.
O=C(N[C@@H]1CCc2ccccc21)n1c(=O)oc2cccnc21 [Example 14] showed an IC50 of 180 nM.
In the case of O=C(N[C@H]1CCc2ccccc21)n1c(=O)oc2cccnc21 [Example 15], the IC50 is reported as 230 nM.
With CCCCCCCCCCCCNC(=O)n1c(=O)oc2cccnc21 [Example 16, 2-Oxo-oxazolo[4,5-b]pyridin-3-dodecylcarboxamide] the IC50 was 180 nM.
For Cc1ccc2oc(=O)n(C(=O)NCc3ccccc3C)c2n1 [Example 17, 5-Methyl-2-oxo-oxazolo[4,5-b]pyridine-3-(2-methylbenzyl)carboxamide], the IC50 was 61 nM.
O=C(NCC1CCCCC1)n1c(=O)oc2cccnc21 [Example 18, 2-Oxo-oxazolo[4,5-b]pyridine-3-cyclohexylmethylcarboxamide] was tested, and the IC50 was 480 nM.
With CCCCCCCCNC(=O)n1c(=O)oc2cccnc21 [Example 19, 2-Oxo-oxazolo[4,5-b]pyridine-3-octylcarboxamide] the IC50 was 83 nM.
CCCCCCCCCNC(=O)n1c(=O)oc2cccnc21 [Example 20, 2-Oxo-oxazolo[4,5-b]pyridine-3-nonylcarboxamide] showed an IC50 of 90 nM.
